From US10766888B1, “HMOX1 inducers” (Mitobridge Inc., priority 2019, dated 2020) come the findings set out here.

For one series, the target named is hERG channel (Homo sapiens, UniProt Q12809). In words: hERG manual patch clamp assay. As to conditions: HEK 293 cells stably expressing hERG channel, pH 7.35, 10 μM compound. Format: cell-based. As to the method:
Cell Lines and Cell Culture
HEK 293 cell line stably expressing hERG channel (Cat # K1236) was purchased from Invitrogen. The cells were cultured in 85% DMEM, 10% dialyzed FBS, 0.1 mM NEAA, 25 mM HEPES, 100 U/mL Penicillin-Streptomycin and 5 μg/mL Blasticidin and 400 μg/mL Geneticin. Cells were split using TrypLE™ Express about three times a week, and maintained between ˜40% to ˜80% confluence. Before the assay, the cells were transferred onto the coverslips at 5×10^5 cells/per 6 cm cell culture dish and induced with doxycycline at 1 μg/mL for 48 hours.
• 1) External solution (in mM): 132 NaCl, 4 KCl, 3 CaCl2, 0.5 MgCl2, 11.1 glucose, and 10 HEPES (pH adjusted to 7.35 with NaOH) • 2) Internal solution (in mM): 140 KCl, 2 MgCl2, 10 EGTA, 10 HEPES and 5 MgATP (pH adjusted to 7.35 with KOH) • 3) hERG currents were tested in presence of 10 μM compound concentration with final concentration of DMSO of 0.1%. Experimental Procedure • 1) Removed the coverslip from the cell culture dish and placed it on the microscope stage in bath chamber. • 2) Located a desirable cell using the 10× objective. Located the tip of the electrode under the microscope using the 10× objective by focusing above the plane of the cells. Once the tip was in focus, advanced the electrode downwards towards the cell using the coarse controls of the manipulator, while simultaneously moving the objective to keep the tip in focus. • 3) When directly over the cell, switched to the 40× objective and used the fine controls of the manipulator to approach the surface of the cell in small steps. • 4) Applied gentle suction through the side-port of the electrode holder to form a gigaohm seal. • 5) Used the Cfast to remove the capacity current that was in coincidence with the voltage step. Obtained the whole cell configuration by applying repetitive, brief, strong suction until the membrane patch ruptured. • 6) Set membrane potential to −60 mV at this point to ensure that hERG channels were not • open. The spikes of capacity current should then be cancelled using the Cslow on the amplifier. 7) Set holding potential to −90 mV for 500 ms; recorded current at 50 kHz and filtered at 10 kHz. Leaking current was tested at −80 mV for 500 ms. • 8) The hERG current was elicited by depolarizing at +30 mV for 4.8 seconds and then the voltage was taken back to −50 mV for 5.2 seconds to remove the inactivation and observe the deactivating tail current. The maximum amount of tail current size was used to determine hERG current amplitude. • 9) Recorded current for 120 seconds to assess the current stability. Only stable cells with recording parameters above threshold were applied for the compound administrations. • 10) Firstly vehicle control was applied to the cells to establish the baseline. […] In order to ensure the good performance of cultured cells and operations, the positive control, Dofetilide, with 5 dose concentration was also used to test the same batch of cells. Data Analysis
The following criteria were used to determine data acceptability. • 1) Initial seal resistance >1 GΩ; • 2) Leak currents <50% of the control peak tail currents at any time; • 3) The peak tail amplitude >250 pA; • 4) Membrane resistance Rm>500 MΩ; • 5) Access resistance (Ra)<10 MΩ; • 6) Apparent run-down of peak current <2.5% per min.
Data that met the above criteria for hERG current quality were further analyzed as the following steps. • 1) Percent hERG current inhibition was calculated using the following equation. • Note: PatchMaster or Clampfit software was used to extract the peak current from the original data.
[formula] • 2) The dose response curve of test compounds was plotted with percentage of hERG current inhibition against the concentration of test compounds using Graphpad Prism 6.0, and fit to a sigmoid dose-response curve with a variable slope.
(In general: The hERG channel carries a current that helps repolarise heart muscle cells.)

The subject of series [1] is Human Heme Oxygenase-1 (HMOX-1). Description: ELISA assay to measure human heme oxygenase-1 (HMOX-1) in HepG2 lysate. It is filed as cell-based. As to conditions: for EC50: human HMOX1 protein level in HepG2 lysate, * = average of 2 or more EC50 determinations, NA = Not Active, read-out: EC50. Summed up: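 HO-1 protein levels were read as fold change over DMSO-treated cells, with EC50 derived from these values. Quantitation used a chemiluminescent streptavidin-HRP capture ELISA, calibrated with an HO-1 standard series starting at 20 ng/ml, run at 20 °C. Samples were HepG2 lysates made with Triton X100/EDTA buffer and diluted 1:20.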
In general terms: ELISA stands for enzyme-linked immunosorbent assay.

Another series is described as follows: Kinetic solubility. It is filed as physicochemical. As to conditions: Dulbecco's phosphate buffer saline (DPBS), aqueous buffer, kinetic from dmso stock, DPBS pH 7.4, 25° C., 200 μM test compound. Summed up:
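Compound from 10 mM DMSO stock diluted to 200 μM final in DPBS pH 7.4 and, separately, in DMSO, in duplicate. Shaken 16 h at 25 °C, then centrifuged 20 min at 25 °C. Supernatant analysed by HPLC.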

In brackets after ≈: the same amount, converted by molar mass. Where only a bound is given, the exact number is not on record here.

Chain of hERG channel (Q12809 whole entry): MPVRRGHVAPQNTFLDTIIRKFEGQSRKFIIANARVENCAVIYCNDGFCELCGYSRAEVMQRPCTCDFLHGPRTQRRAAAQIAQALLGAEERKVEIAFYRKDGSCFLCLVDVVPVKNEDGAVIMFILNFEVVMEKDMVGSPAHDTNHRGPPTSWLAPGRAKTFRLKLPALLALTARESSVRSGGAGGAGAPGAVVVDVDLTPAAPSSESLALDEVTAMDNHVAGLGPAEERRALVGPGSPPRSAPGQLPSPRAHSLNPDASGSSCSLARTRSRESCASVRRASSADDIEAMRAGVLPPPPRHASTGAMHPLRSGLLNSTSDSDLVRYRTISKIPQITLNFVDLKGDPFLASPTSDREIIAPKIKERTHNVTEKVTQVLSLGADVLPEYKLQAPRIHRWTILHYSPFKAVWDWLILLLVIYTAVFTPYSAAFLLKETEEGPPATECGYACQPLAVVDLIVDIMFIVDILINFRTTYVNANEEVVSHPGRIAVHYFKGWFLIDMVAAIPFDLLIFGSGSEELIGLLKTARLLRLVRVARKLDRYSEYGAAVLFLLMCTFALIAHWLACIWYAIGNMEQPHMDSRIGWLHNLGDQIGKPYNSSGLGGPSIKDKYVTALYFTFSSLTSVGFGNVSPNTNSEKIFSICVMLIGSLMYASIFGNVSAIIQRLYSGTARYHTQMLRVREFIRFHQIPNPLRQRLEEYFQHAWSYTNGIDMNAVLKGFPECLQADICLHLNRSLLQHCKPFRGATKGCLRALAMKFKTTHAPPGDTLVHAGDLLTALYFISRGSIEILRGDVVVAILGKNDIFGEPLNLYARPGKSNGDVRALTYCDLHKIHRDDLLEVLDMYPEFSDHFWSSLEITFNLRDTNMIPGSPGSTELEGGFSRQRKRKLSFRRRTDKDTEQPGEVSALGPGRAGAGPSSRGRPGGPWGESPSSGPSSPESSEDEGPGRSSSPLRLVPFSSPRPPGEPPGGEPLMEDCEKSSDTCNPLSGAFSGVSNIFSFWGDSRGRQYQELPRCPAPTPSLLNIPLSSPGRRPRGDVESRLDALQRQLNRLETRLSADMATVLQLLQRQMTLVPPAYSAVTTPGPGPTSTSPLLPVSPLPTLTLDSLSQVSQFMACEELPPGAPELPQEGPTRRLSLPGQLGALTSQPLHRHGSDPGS

A word on the inhibition: it is the percentage by which the read-out fell short of the control. A higher inhibition goes with a response far below the control. Compound `CC1CCc2nc(Nc3nc4cc(C(=O)NCCOCCO)ccc4n3C)sc2C1` (stereo not drawn) [Ex 7, N-(2-(2-hydroxyethoxy)ethyl)-1-methyl-2-((6-methyl-4,5,6,7-tetrahydrobenzo[d]thiazol-2-yl)amino)-1H-benzo[d]imidazole-5-carboxamide] registered an inhibition at 10 µM at hERG channel of 6%.

The EC50 is the concentration giving half of the maximal effect. As usually defined, the solubility is the dissolved amount per volume that the medium holds. A higher solubility goes with a readily soluble substance. `COCCNC(=O)c1ccc2c(c1)nc(Nc1nc3cc(OC(F)(F)F)ccc3[nH]1)n2C` [Example 14, N-(2-methoxyethyl)-1-methyl-2-((5-(trifluoromethoxy)-1H-benzo[d]imidazol-2-yl)amino)-1H-benzo[d]imidazole-5-carboxamide] came in with an inhibition at 10 µM on hERG channel of 87%. Besides, in series [1] (fold change of human HMOX1 protein level relative to DMSO control, HepG2), the “Maximum Fold induction” value is 6.25 fold. Further, the EC50 in series [1] came to 2300 nM. In “Kinetic solubility”, this compound showed a solubility at 16 h of 4.2 µM (≈ 1.88 µg/mL).

In the case of `Cn1c(Nc2nc3ccccc3o2)nc2cc(C(=O)NCCO)ccc21` [Example 16, 2-(benzo[d]oxazol-2-ylamino)-N-(2-hydroxyethyl)-1-methyl-1H-benzo[d]imidazole-5-carboxamide], at hERG channel, the inhibition at 10 µM was 35%. Besides, the EC50 in series [1] came to 700 nM. In “Kinetic solubility”, this compound came in with a solubility at 16 h of 11.7 µM (≈ 4.11 µg/mL).

Consider `Cl.Cn1c(Nc2nc3ccccc3o2)nc2cc(C(=O)NCCN)ccc21` [Example 18, N-(2-aminoethyl)-2-(benzo[d]oxazol-2-ylamino)-1-methyl-1H-benzo[d]imidazole-5-carboxamide hydrochloride], for which, at hERG channel, the inhibition at 10 µM is 12%. Moreover, the EC50 in series [1] came to 700 nM. The compound also had a solubility at 16 h in the series “Kinetic solubility” of 12.4 µM.

Take `CN(C)CC(=O)NCCNC(=O)c1ccc2c(c1)nc(Nc1nc3ccccc3o1)n2C` [Example 19, 2-(benzo[d]oxazol-2-ylamino)-N-(2-(2-(dimethylamino)acetamido)ethyl)-1-methyl-1H-benzo[d]imidazole-5-carboxamide]: the inhibition at 10 µM against hERG channel worked out at 29%. Moreover, the EC50 in series [1] was determined as 1800 nM.

For the compound `Cn1c(Nc2nc3ccccc3o2)nc2cc(C(=O)NCCN3CCOCC3)ccc21` [Example 20, 2-(benzo[d]oxazol-2-ylamino)-1-methyl-N-(2-morpholinoethyl)-1H-benzo[d]imidazole-5-carboxamide], at 10 µM the inhibition against hERG channel was 59%. In series [1], the EC50 worked out at 1000 nM. In addition, in the series “Kinetic solubility”, the solubility at 16 h was determined as 7.3 µM (≈ 3.07 µg/mL).

In turn, `Cn1c(Nc2nc3cc(F)ccc3[nH]2)nc2cc(C(=O)O)ccc21` [Example 73, 2-((5-fluoro-1H-benzo[d]imidazol-2-yl)amino)-1-methyl-1H-benzo[d]imidazole-5-carboxylic acid] gave an inhibition at 10 µM on hERG channel of 5%. Also, in series [1], the EC50 came to 2900 nM.

Consider `CN(C)CCONC(=O)c1ccc2c(c1)nc(Nc1nc3ccccc3o1)n2C` [Example 123, 2-(benzo[d]oxazol-2-ylamino)-N-(2-(dimethylamino)ethoxy)-1-methyl-1H-benzo[d]imidazole-5-carboxamide], for which testing at 10 µM at hERG channel gave an inhibition of 54%. The solubility at 16 h in the series “Kinetic solubility” came out at 10.5 µM (≈ 4.14 µg/mL).

As for `Cn1c(Nc2nc3ccc(OC(F)(F)F)cc3o2)nc2cc(C(=O)NOCCO)ccc21` [Example 126, N-(2-hydroxyethoxy)-1-methyl-2-((6-(trifluoromethoxy)benzo[d]oxazol-2-yl)amino)-1H-benzo[d]imidazole-5-carboxamide], the EC50 in series [1] amounted to 500 nM. Besides, the solubility at 16 h in “Kinetic solubility” was 2.1 µM (≈ 0.948 µg/mL).

For the compound `COCCONC(=O)c1ccc2c(c1)nc(Nc1nc3ccc(OC(F)(F)F)cc3o1)n2C` [Example 127, N-(2-methoxyethoxy)-1-methyl-2-((6-(trifluoromethoxy)benzo[d]oxazol-2-yl)amino)-1H-benzo[d]imidazole-5-carboxamide], the EC50 in series [1] is 500 nM. The same compound displayed a solubility at 16 h in “Kinetic solubility” below 2 µM.

As for `Cn1c(Nc2nc3ccc(OCCO)cc3o2)nc2cc(C(=O)NOCCO)ccc21` [Example 129, N-(2-hydroxyethoxy)-2-((6-(2-hydroxyethoxy)benzo[d]oxazol-2-yl)amino)-1-methyl-1H-benzo[d]imidazole-5-carboxamide], the EC50 in series [1] was 3400 nM. The compound also had a solubility at 16 h in “Kinetic solubility” of 14.1 µM (≈ 6.03 µg/mL).

Take `Cn1c(Nc2nc3cc(F)c(C(F)(F)F)cc3o2)nc2cc(C(=O)NOCCO)ccc21` [Example 130, 2-((5-fluoro-6-(trifluoromethyl)benzo[d]oxazol-2-yl)amino)-N-(2-hydroxyethoxy)-1-methyl-1H-benzo[d]imidazole-5-carboxamide]: in series [1], the EC50 is 740 nM. Also, the solubility at 16 h in “Kinetic solubility” is below 2 µM.

On to `CC1CCc2nc(Nc3nc4cc(C(=O)NOCCO)ccc4n3C)sc2C1` (stereo not drawn) [Example 131, N-(2-hydroxyethoxy)-1-methyl-2-((6-methyl-4,5,6,7-tetrahydrobenzo[d]thiazol-2-yl)amino)-1H-benzo[d]imidazole-5-carboxamide], for which the EC50 in series [1] is 1400 nM. The compound also came in with a solubility at 16 h in “Kinetic solubility” of 6.7 µM (≈ 2.69 µg/mL).

As to `COCCONC(=O)c1ccc2c(c1)nc(Nc1nc3ccc(C(C)=O)cc3o1)n2C` [Example 132, 2-((6-acetylbenzo[d]oxazol-2-yl)amino)-N-(2-methoxyethoxy)-1-methyl-1H-benzo[d]imidazole-5-carboxamide], the EC50 in series [1] was 1500 nM. For the same compound, the solubility at 16 h in “Kinetic solubility” is 3.1 µM (≈ 1.31 µg/mL).

Take `Cn1c(Nc2nc3ccc(C(C)(C)O)cc3o2)nc2cc(C(=O)NCCO)ccc21` [Example 133, N-(2-hydroxyethyl)-2-((6-(2-hydroxypropan-2-yl)benzo[d]oxazol-2-yl)amino)-1-methyl-1H-benzo[d]imidazole-5-carboxamide]: in series [1], the EC50 is 5300 nM. Moreover, the solubility at 16 h in the series “Kinetic solubility” came to 9.2 µM (≈ 3.77 µg/mL).

For the compound `Cn1c(Nc2nc3ccc(-c4cscn4)cc3o2)nc2cc(C(=O)NCCOCCO)ccc21` [Example 134, N-(2-(2-hydroxyethoxy)ethyl)-1-methyl-2-((6-(thiazol-4-yl)benzo[d]oxazol-2-yl)amino)-1H-benzo[d]imidazole-5-carboxamide], the EC50 in series [1] was determined as 1400 nM. In “Kinetic solubility”, this compound showed a solubility at 16 h below 2 µM.

Take `Cn1c(Nc2nc3ccc(N4CCOCC4)cc3o2)nc2cc(C(=O)NCCOCCO)ccc21` [Example 136, N-(2-(2-hydroxyethoxy)ethyl)-1-methyl-2-((6-morpholinobenzo[d]oxazol-2-yl)amino)-1H-benzo[d]imidazole-5-carboxamide]: the EC50 in series [1] was found to be 2900 nM. Further, the solubility at 16 h in the series “Kinetic solubility” was determined as 10.6 µM (≈ 5.09 µg/mL).

Turning to `Cn1c(Nc2nc3ccccc3o2)nc2cc(C(=O)C(F)(F)F)ccc21` [Example 139, 1-(2-(benzo[d]oxazol-2-ylamino)-1-methyl-1H-benzo[d]imidazol-5-yl)-2,2,2-trifluoroethan-1-one], the EC50 in series [1] was 2600 nM. The solubility at 16 h in the series “Kinetic solubility” is below 2 µM.

Consider `Cn1c(Nc2nc3ccccc3o2)nc2cc(C(N)C(F)(F)F)ccc21` (stereo not drawn) [Example 141, N-(5-(1-amino-2,2,2-trifluoroethyl)-1-methyl-1H-benzo[d]imidazol-2-yl)benzo[d]oxazol-2-amine], for which, in series [1], the EC50 was 3600 nM. Further, the solubility at 16 h in “Kinetic solubility” was 9 µM (≈ 3.25 µg/mL).
